Assay results taken from patent publication US9682970B2, “Fluorescent compounds and uses thereof” (BIOTIUM, INC., priority 2012, dated 2017).

Tests used:
live HeLa cells = experiment: Staining of live cells; type: cell-based; settings: 10 uM, 30 minutes at 37 C
Experimental: (§1) The images in the top panel of FIG. 6 were obtained under the following conditions: live HeLa cells were incubated with 10 uM compound 7, compound 8, or Dye 5 for 30 minutes at 37 C in a CO2 incubator. The images in the bottom panel of FIG. 6 were obtained under the following conditions: HeLa cells were formaldehyde-fixed, permeabilized, and blocked according to standard immunofluorescence staining protocols. Cell were stained with 10 μM compound 7, 8 or 5 in PBS/5% BSA for 30 minutes, then washed with PBS buffer and imaged. Live and fixed cells were imaged using an Olympus epifluorescence microscope equipped with a FITC filter set, Retiga 2000R Fast 1394 camera (QImaging), and Image-Pro Express software (Media Cybernetics).

adherent HeLa cells = experiment: Cell number quantitation in adherent cell cultures; type: cell-based; settings: 10 uM, 30 minutes at 37° C., 50,000 to 100 cells per well
Experimental: The data in FIG. 7B was obtained under the following conditions: adherent HeLa cells were seeded at densities ranging between 50,000 and 100 cells per well in optical bottom black 96 well tissue culture plates and allowed to adhere overnight at 37° C. in a 5% CO2 incubator. On the day after seeding, the cells were washed with HBSS and incubated in HBSS containing Dye 5 or Dye 7 at 10 uM for 30 minutes at 37° C. Fluorescence was read at 468/507 nm in a Molecular Devices Gemini XS fluorescent plate reader. Triplicate samples were averaged and background fluorescence (no cells) was subtracted. Fluorescence values were plotted against the DNA amount (ng/well). The R^2 values for linear regression are shown next to each curve. For comparison, cell numbers were quantitated using the CyQUANT NF Cell Proliferation Assay Kit (Life Technologies according to the kit manual.

[1] = system: HeLa cells formaldehyde-fixed, permeabilized; experiment: Staining of fixed cells; type: cell-based; settings: 10 μM in PBS/5% BSA, 30 minutes
Experimental: as §1

calf thymus dsDNA = experiment: Absorption and emission spectra of nucleic acid binding dyes; type: physicochemical
Experimental: All absorption spectra were measured on a Beckman Coulter DU-800 spectrophotometer at room temperature. All fluorescence spectra were measured on a Hitachi F-4500 fluorescence spectrophotometer at room temperature. To record the complete emission profiles, excitation wavelengths were set 30 nm shorter than the absorption maxima of the dyes. The dsDNA used was calf thymus dsDNA from Sigma. When dsDNA was present in the dye solutions, spectra were recorded after the dyes had been incubated with the DNA for at least 10 minutes.

calf thymus DNA = experiment: DNA quantitation in solution (fluorescence linearity)
Experimental: compounds 5, 7 and related compounds according to the invention can be used to quantitate double-stranded DNA in solution with high sensitivity and accuracy over a wide range of DNA concentrations, as shown in FIGS. 4 and 5. […] At […] dye concentration, compound 5 fluorescence is linear from 0.04-250 ng (FIG. 5).
The data shown in FIG. 4A was obtained under the following conditions: compound 7 at 0.5 μM was prepared in TE buffer (10 mM Tris, 1 mM EDTA, pH 7.5), and pipetted into wells of black 96-well plates at 200 μL per well. Two-fold dilutions of calf thymus DNA were prepared in TE buffer starting at 0.2 ng/uL, and 10 μL of each DNA dilution was added per 96 well to obtain a standard curve of 2 ng to 0.015 ng per well. The plates were incubated for five minutes at room temperature, protected from light, then read at 468 nm excitation and 507 nm emission using a Molecular Devices Gemini XS fluorescent plate reader. Triplicate samples were averaged and background fluorescence (no DNA) was subtracted. Fluorescence values were plotted against the DNA amount (ng/well). […] The R^2 values for linear regression are shown next to each curve. The data shown in FIG. 4B were obtained under similar condition except that compound 5 at 1 uM was used and serial DNA dilutions were from 250 ng to 0.04 ng.

Jurkat cells = experiment: Cell number quantitation in cell suspensions; type: cell-based; settings: 10 uM final dye, 30 minutes at 37° C., 440,000 to 860 cells per well
Experimental: The data in FIG. 7A were obtained under the following conditions: compound 5 or 7 at 20 uM in Hank's Balanced Salt Solution (HBSS) was pipetted into optical bottom black 96 well tissue culture plates at 50 μL per well. Two-fold serial dilutions of Jurkat cells in suspension culture were prepared in Hank's Balanced Salt Solution (HBSS) and pipetted into black 96 well plates at 50 μL per well to obtain a dilution curve of 440,000 to 860 cells per well, and a final dye concentration of 10 uM. Plates were incubated for 30 minutes at 37° C. in a 5% CO2 incubator, and fluorescence was read at 468/507 nm in a Molecular Devices Gemini XS fluorescent plate reader. Triplicate samples were averaged and background fluorescence (no cells) was subtracted. Fluorescence values were plotted against the DNA amount (ng/well). The R^2 values for linear regression are shown next to each curve. For comparison, cell numbers were quantitated using the CyQUANT NF Cell Proliferation Assay Kit (Life Technologies) according to the kit manual.

[2] = system: HeLa cells fixed in 4% paraformaldehyde; experiment: Staining of fixed cells with Compound 36; type: cell-based; settings: 10 uM in blocking buffer, 10 minutes, Cy3 channel
Experimental: The high photostability and relatively long emission wavelength (˜565 nm) make the dye a useful cell counterstain. HeLa cells were plated on an 8-chambered Lab-Tek cover glass at 4×10^4 cells per chamber and cultured overnight. The day after plating, the cells were fixed in 4% paraformaldehyde/PBS for 15 minutes at room temperature. The cells were rinsed in PBS and blocked in PBS containing 5% normal goat serum and 0.1% Triton X-100 for 30 minutes at room temperature. Cells were stained with 10 uM Dye 36 in blocking buffer for 10 minutes at room temperature and imaged in the same solution by confocal microscopy in the Cy3 channel of a Zeiss LSM 700 confocal microscope.

[3] = Photostability of the dye; type: physicochemical
[4] = system: linearized GAPDH-containing plasmid DNA; experiment: Real-time PCR with plasmid DNA; settings: 0.34 uM dye, 5×10^5 copies plasmid
Experimental: Compound 7 and related dyes can be used in real time PCR experiments to monitor amplification of target plasmid DNA. In FIG. 8, 5×10^5 copies of linearized GAPDH-containing plasmid DNA or water (non-template controls, NTC) were added to PCR reaction mixes containing 0.34 uM of either SYBR Green I (lines with solid diamonds (DNA) or “x's” (water)) or Compound 7 (lines with triangles (DNA) or circles (water)) and real time PCR was performed. […] The data in FIG. 8 were collected under the following conditions: PCR reactions consisted of a final concentration of 50 mM Tris-HCl (pH 8.6), 3 mM MgCl2, 50 μg/ml non-acetylated BSA (Sigma), 200 μM dNTPs (New England BioLabs), 500 nM GAPDH Forward primer ([NT]), 500 nM GAPDH Reverse primer ([NT]) (Integrated DNA Technologies), 1 U Hot-Start Cheetah Taq (Biotium, Inc.) and either 0.34 uM SYBR Green I (Life Technologies) or 0.34 uM compound 7. One microliter of 5×10^5 copies linearized pCMV-SPORT6 GAPDH plasmid (Open Biosystems) was added to each 20 ul reaction. Real time PCR was performed using the RotorGeneQ with the following cycling conditions: 95° C. for 2 minutes, followed by 45 cycles of 95° C. for 5 seconds and 60° C. for 30 seconds, with data acquisition during the elongation stage on the green channel.

[5] = system: GAPDH cDNA from Jurkat cell purified mRNA; experiment: Real-time PCR with cDNA; settings: 0.34 uM dye
Experimental: Compound 7 and related dyes can be used in real time PCR experiments to monitor amplification of target cDNA. In FIG. 9, serial dilutions of total cDNA generated from Jurkat cell purified mRNA were added to PCR reaction mixes containing 0.34 uM compound 7 and real time PCR was performed.
The data in FIG. 9 were collected under the following conditions: mRNA was purified from 4×10^6 Jurkat cells using Qiagen's RNeasy Kit and cDNA was then generated using oligo-dT primers and the ProtoScript First Strand cDNA Synthesis Kit (New England BioLabs). Serial 1:2 dilutions of the cDNA in water were prepared and added to PCR reactions consisting of a final concentration of 25 mM Tris-HCl (pH 8.6), 5 mM KCl, 10 mM (NH4)2SO4, 2 mM MgCl2, 2.5% glycerol, 5% DMSO, 200 uM dNTPs (New England BioLabs), 0.01% Tween-20, non-acetylated BSA (Sigma), 500 nM GAPDH Forward primer (5′-GAAGGTGAAGGTCGGAGTC-3′), 500 nM GAPDH Reverse primer (5′-[…]-3′) (Integrated DNA Technologies), 1 U Taq polymerase (Syzygy) modified using a HotStart Polymerase Modification Kit (Biotium, Inc.) and 0.34 uM compound 7. One microliter cDNA was added to each 20 ul reaction. Real time PCR was performed using the RotorGeneQ as described for FIG. 8.

[6] = system: CD3e PCR products (WT or single base pair change); experiment: High-resolution melt curve analysis (HRM); parameters: species or system human; settings: compound 7 (0.07 μM) spiked into EvaGreen Master Mix
Source text: The addition of a small amount of compound 7 to existing real time HRM Master Mixes can improve the resolution of the melting curves leading to higher confidence calls by HRM software. FIGS. 12 and 13 show normalized graphs (12A, 13A) and difference graphs (12B, 13B) from the HRM analysis of PCR products generated from template plasmids containing either a WT copy of CD3e or a version with a single base pair change. The genotype calls of the HRM software are also shown (12C, 13C).
The data in FIGS. 12 and 13 were collected under the following conditions: PCR reactions were performed as in FIG. 10 with 500 nM CD3e Forward primer (5′-[…]-3′) and […] CD3e Reverse primer (5′-[…]-3′). To each reaction, one microliter of approximately 1×10^6 copies/μl pME-human CD3e-6× His-HA was added, either with a wild type (WT) sequence or with a single nucleotide change (C to T) at base 54 from the start codon of the CD3e sequence. HRM analysis was performed on the RotorGeneQ immediately following template amplification from a temperature range of 76.5-86.5° C. ramping 0.1° C. every two seconds after initial 90 second pre-melt conditioning.

[7] = in the presence of dsDNA, 10 mM pH 7.4 Tris buffer, room temperature
[8] = 0.5 μM dye concentration, DNA 0.015-2 ng

CCCN(CCCNC1=CC(=Cc2sc3ccccc3[n+]2C)c2ccccc2N1c1ccccc1)C(=N)N [compound 5]
staining of nuclei of live cells (live HeLa cells): can specifically stain the nuclei
quantitation of cell numbers in adherent cell cultures (adherent HeLa cells): can be used to quantitate cell numbers
staining of nuclei of fixed cells [1]: can specifically stain the nuclei
fluorescence upon DNA binding (calf thymus dsDNA; 10 mM pH 7.4 Tris, with DNA): highly fluorescent
absorption maximum (calf thymus dsDNA; [7]): ~470 nm
emission maximum (calf thymus dsDNA; [7]): ~520 nm
DNA amount range of linearity of fluorescence (calf thymus DNA; 1 uM concentration (FIG. 4B)): 0.05 to 250 ng
DNA amount range over which fluorescence is linear (calf thymus DNA; 1 mM dye concentration): 0.04 to 250 ng
quantitation of cell numbers in cell suspensions (Jurkat cells): can be used to quantitate cell numbers

CC(=N)NCc1ccc2c(c1)C(C)(C)C(=CC(C)=CC1=[N+](C)c3ccc(CNC(C)=N)cc3C1(C)C)N2C [Compound 36]
staining of nuclei of fixed cells [2]: good specificity
photostability [3]: high
emission wavelength (calf thymus dsDNA): ~565 nm

CN(C)CCCN(CCCN(C)C)c1cc(C=C2Sc3ccccc3N2C)c2ccccc2[n+]1-c1ccccc1 [PicoGreen, reference compound]
linearity of fluorescence at lower DNA concentrations (calf thymus DNA; [8]): lower than that of compound 7

CCCN(CCCNC1=CC(=Cc2sc3cccc4c3[n+]2CCC4)c2ccccc2N1c1ccccc1)C(=N)N [compound 8]
staining of nuclei of live cells (live HeLa cells): can specifically stain the nuclei
staining of nuclei of fixed cells [1]: can specifically stain the nuclei

CCCN(CCCNC1=CC(=Cc2sc3cccc4c3[n+]2CCC4)c2ccccc2N1c1ccccc1)C1=NCCN1 [compound 7]
Ct value (in words) [4]: early
amplification of target amplicon [4]: efficient amplification
endpoint fluorescent signal [4]: high
amplification of target amplicon from serial cDNA dilutions [5]: efficient amplification
staining of nuclei of live cells (live HeLa cells): can specifically stain the nuclei
quantitation of cell numbers in adherent cell cultures (adherent HeLa cells): can be used to quantitate cell numbers
staining of nuclei of fixed cells [1]: can specifically stain the nuclei
sensitivity (slope of the titration curve) compared to PicoGreen (calf thymus DNA; [8]): more sensitive than PicoGreen
quantitation of cell numbers in cell suspensions (Jurkat cells): can be used to quantitate cell numbers
effect on HRM analysis resolution [6]: improves HRM analysis resolution
